Patent US20230405084A1, “USE OF PHOSPHATIDYLSERINE IN PREPARATION OF DRUG FOR TREATING INFLAMMATORY BOWEL DISEASE” (JIANGSU TARGET BIOMEDICAL RESEARCH INSTITUTE CO., LTD., priority 2020, published 2023)
Residue numbers refer to the chain shown, from its start.

Legend:
[1] = molecular target: T1, Annexin A5-EGFP (wild-type Annexin A5 fused to EGFP) (Homo sapiens, UniProt P08758); test: MST analysis of protein binding ability to PS (Annexin A5-EGFP); conditions: fitted binding curve (Fnorm), in the presence of Ca^2+, protein fixed, gradient dilution of PS, 5 min at room temperature
T1 construct: E. coli BL21(DE3), pET-28a/kanamycin vector
T1 sequence (P08758 1-320): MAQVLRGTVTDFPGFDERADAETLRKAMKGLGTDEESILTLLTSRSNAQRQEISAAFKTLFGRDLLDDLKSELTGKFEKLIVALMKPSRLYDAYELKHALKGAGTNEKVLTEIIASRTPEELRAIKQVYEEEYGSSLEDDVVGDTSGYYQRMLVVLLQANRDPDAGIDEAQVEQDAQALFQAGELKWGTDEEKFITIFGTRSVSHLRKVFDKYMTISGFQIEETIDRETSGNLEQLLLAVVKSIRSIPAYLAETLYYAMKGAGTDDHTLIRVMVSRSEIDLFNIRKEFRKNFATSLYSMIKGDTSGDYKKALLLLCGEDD
Experimental: (§1) 3.2.9 MST Analysis of Protein Binding Ability to PS
(§2) MST is based on the phenomenon of thermophoresis of biomolecules in capillaries, resulting in changes in the properties of biomolecules, which are manifested in changes in the fluorescence distribution of the reaction system, and the fluorescence changes reflect the affinity of biomolecular interactions.
(§3) The MST experiment was conducted as follows.
(§4) (1) Non-fluorescent ligand preparation: 20 μL of the highest concentration unmarked PS molecules was prepared. 16 PCR tubes were labeled. 10 μL of buffer was added to each of 15 PCR tubes. 10 μL from PCR tube #1 was transferred to PCR tube #2 and mixed thoroughly. 10 μL from PCR tube #2 was transferred to PCR tube #3 and mixed thoroughly. Repeat this step in all sample tubes. Finally, 10 μL from PCR tube #16 was taken out and discard.
(§5) (2) Fluorescent ligand preparation: The fluorescent ligand was diluted to 2 times the concentration to be tested, and 10 μL was added respectively to PCR tubes 1-16 in sequence using a clean pipette tip, starting from the low concentration PCR tube to the highest concentration PCR tube.
(§6) (3) Incubation: The reaction solutions of the above tubes were mixed thoroughly and incubated for 5 min at room temperature away from light. […]

[2] = molecular target: T2, Annexin A5m-EGFP (Annexin A5 variant Annexin A5m, R25A/K29S/R63S/D68A/E72Q/D144N/E228A/D303N, fused to EGFP) (Homo sapiens, UniProt P08758, D144N/D303N/D68A/E228A/E72Q/K29S/R25A/R63S); test: MST analysis of protein binding ability to PS (Annexin A5m-EGFP); conditions: in the presence of Ca^2+, failed to be fitted into a binding curve, protein fixed, gradient dilution of PS, 5 min at room temperature
T2 construct: pET-28a, E. coli BL21(DE3)
T2 sequence (P08758 1-320 R25A/K29S/R63S/D68A/E72Q/D144N/E228A/D303N): T1 sequence (P08758 1-320) with R25A, K29S, R63S, D68A, E72Q, D144N, E228A, D303N
Experimental: as §1, §2, §3, §4, §5, §6

phosphatidylserine [PS]
Kd [1]: 13.8 µM | Kd value [2]: no Kd value
